# Test results as given in patent US9505709B2, “Compositions and methods relating to ionic salts of peptides” (Thetis Pharmaceuticals LLC, priority 2014, dated 2016).
# Peptide text beside a SMILES is read from it.
# What was measured:
# [1] = Stability analysis by 1H NMR of samples exposed to air and light; conditions: ambient temperature
# Experimental: Stability analysis was performed using 1H NMR (400 MHz) with acetic acid-d4 at various time point (typically days 1, 14, 30 and 60) using samples exposed to air and light at ambient temperature (clear vials with no caps).
# Balb/C mice = assay: Ocular irritation after topical dosing to the cornea (hyperemia, squinting, discharge, lid swelling); type: in vivo; conditions: for Hyperemia: 3 μL drop in each eye four times daily for 3 days
# Experimental: In an embodiment where the ophthalmic formulation is an aqueous formulation, it has been determined in mice that certain formulations can be administered to the surface of the eye without producing irritation that would make them unsuitable for such application. Irritation parameters of TP-211-1, TP-212-1, TP-311-1 and TP-312-1 related to hyperemia, squinting, and discharge were determined in Balb/C mice. Mice were dosed topically to the cornea using a calibrated micropipette, with a 3 μL drop of treatment in each eye four times daily for 3 consecutive days at various concentrations.
# TP-211-1 is Lysyl-lysine EPA. TP-212-1 is Lysyl-lysine bis-EPA. TP-311-1 is Lysyl-lysine DHA. TP-312-1 is Lysyl-lysine bis-DHA. The study drugs were prepared using phosphate buffered saline (PBS) to reach target concentrations ranging from 0.1% to 1.0%.
# The animals were monitored for scratching at the eye or any other abnormal behavior post-dose. Ocular exams were conducted on Days 1 and 3 with use of a Micron III camera system to take high resolution videos of the right eye of each animal Clinical signs including but not limited to hyperemia, discharge, lid swelling, and squinting were evaluated by trained personnel who was masked as to group assignment. Each clinical sign was graded on a scale of 0-4, with the exception of lid swelling which was graded on a scale of 0-2. Scores were averaged and are expressed as the mean±SEM for each group. Statistical significance was assessed between the treatment arms and the vehicle group. Any significance is noted by asterisks (*=p<0.05, **=p<0.01, ***=p<0.001).
# [2] = Oral pharmacokinetics (oral gavage), plasma free EPA or free DHA; type: in vivo, Sprague-Dawley rats; conditions: oral gavage 40 mg/kg, rat
# Experimental: Experiments via Oral Gavage: Oral pharmacokinetic parameters of TP-212 (Lysyl-Lysine Bis-EPA), TP-312 (Lysyl-Lysine Bis-DHA), EPA-EE, EPA FFA and DHA FFA were determined in Sprague-Dawley rats. EPA-EE is 97% pure ethyl ester form of eicosapentaenoic acid. It is the principal polyunsaturated fatty acid in Vascepa, an Omega-3 compound approved in the U.S. for the treatment of severe hypertriglyceridemia. EPA FFA is 97% pure free fatty acid form of eicosapentaenoic acid and DHA FFA is 98% pure free fatty acid DHA. EPA FFA and DHA FFA are the two principal poly-unsaturated fatty acids in Epanova, an Omega-3 compound approved in the U.S. for the treatment of severe hypertriglyceridemia. The subject drugs were administered by oral gavage as an aqueous solution in de-ionized water to 6 Sprague-Dawley rats per group (3 males and 3 females). Rats were dosed at 40 mg/kg. Blood samples were obtained from each rat by jugular vein catheter. Samples were collected at pre-dose and at 0.25, 0.5, 1, 2, 4, 8, 12 and 18 hours post dose. Blood samples were centrifuged to separate red blood cells and the resulting plasma samples were analyzed for free EPA or free DHA. Free EPA or […] extracted from rat plasma with hexane at acidic condition without hydrolysis. Detection was by MS-MS monitoring of negative ion for EPA or DHA. Calculated pharmacokinetic values are mean values from 6 rats for each study drug.
# For all figures and tables, the data are adjusted as follows for comparative purposes. First, the actual plasma levels are baseline adjusted. Thus, for each study arm, the pre-dose level (time=0) is subtracted from the actual plasma levels at each time point, with negative values adjusted to zero. Second, these baseline adjusted values are further adjusted to be molar dose equivalent on a comparative basis among the study arms with respect to EPA or DHA payload (i.e., as if equal amounts of free fatty acid EPA or DHA are administered in each study arm).
# [3] = 0 h (pre-dose), molar dose equivalent, baseline adjusted
# [4] = 0.25 h (15 min), molar dose equivalent, baseline adjusted
# [5] = 0.5 h (30 min), molar dose equivalent, baseline adjusted
# [6] = 1 h (60 min), molar dose equivalent, baseline adjusted
# [7] = 2 h (120 min), molar dose equivalent, baseline adjusted
# [8] = 4 h (240 min), molar dose equivalent, baseline adjusted
# [9] = 8 h, molar dose equivalent, baseline adjusted
# [10] = 12 h, molar dose equivalent, baseline adjusted
# [11] = 18 h, molar dose equivalent, baseline adjusted
# [12] = molar dose equivalent, baseline adjusted
smiles,measurement,setting,value
CCC=CCC=CCC=CCC=CCC=CCC=CCCC(=O)O.CCC=CCC=CCC=CCC=CCC=CCC=CCCC(=O)O.N=C(N)NCCCC(N)C(=O)NC(CCCNC(=N)N)C(=O)O [Arginyl-arginine Bis-DHA],Stability by NMR (amount of sample remaining relative to original sample),[1]; Day 3,1 (1 = >95%)
same,Stability by NMR (amount of sample remaining relative to original sample),[1]; Day 14,1 (1 = >95%)
same,Stability by NMR (amount of sample remaining relative to original sample),[1]; Day 30,1 (1 = >95%)
same,Stability by NMR (amount of sample remaining relative to original sample),[1]; Day 60,1 (1 = >95%)
CCC=CCC=CCC=CCC=CCC=CCCCC(=O)O.CCC=CCC=CCC=CCC=CCC=CCCCC(=O)O.N=C(N)NCCCC(N)C(=O)NC(CCCNC(=N)N)C(=O)O (stereo not drawn) [Arginyl-arginine Bis-EPA] (H-Arg-Arg-OH; configuration not given here),Stability by NMR (amount of sample remaining relative to original sample),[1]; Day 3,1 (1 = >95%)
same,Stability by NMR (amount of sample remaining relative to original sample),[1]; Day 14,1 (1 = >95%)
same,Stability by NMR (amount of sample remaining relative to original sample),[1]; Day 30,1 (1 = >95%)
same,Stability by NMR (amount of sample remaining relative to original sample),[1]; Day 60,1 (1 = >95%)
CCC=CCC=CCC=CCC=CCC=CCC=CCCC(=O)O.CCC=CCC=CCC=CCC=CCC=CCC=CCCC(=O)O.N=C(N)NCCCC(N)C(=O)NC(CCCCN)C(=O)O [Arginyl-lysine Bis-DHA],Stability by NMR (amount of sample remaining relative to original sample),[1]; Day 3,1 (1 = >95%)
same,Stability by NMR (amount of sample remaining relative to original sample),[1]; Day 14,1 (1 = >95%)
same,Stability by NMR (amount of sample remaining relative to original sample),[1]; Day 30,1 (1 = >95%)
same,Stability by NMR (amount of sample remaining relative to original sample),[1]; Day 60,1 (1 = >95%)
CCC=CCC=CCC=CCC=CCC=CCCCC(=O)O.CCC=CCC=CCC=CCC=CCC=CCCCC(=O)O.N=C(N)NCCCC(N)C(=O)NC(CCCCN)C(=O)O [Arginyl-lysine Bis-EPA],Stability by NMR (amount of sample remaining relative to original sample),[1]; Day 3,1 (1 = >95%)
same,Stability by NMR (amount of sample remaining relative to original sample),[1]; Day 14,1 (1 = >95%)
same,Stability by NMR (amount of sample remaining relative to original sample),[1]; Day 30,1 (1 = >95%)
same,Stability by NMR (amount of sample remaining relative to original sample),[1]; Day 60,1 (1 = >95%)
"CC/C=C\C/C=C\C/C=C\C/C=C\C/C=C\CCCC(=O)O.NCCCC[C@H](NC(=O)[C@@H](N)CCCCN)C(=O)O [Compound 1, (L,L) Lysyl-lysine EPA salt (mono)]",Hyperemia,Balb/C mice; 0.1% concentration in PBS,maintained baseline levels of hyperemia throughout both evaluations
same,Hyperemia,Balb/C mice; 0.25% concentration in PBS,maintained baseline levels of hyperemia throughout both evaluations
same,Hyperemia,Balb/C mice; 0.5% concentration in PBS,some initial increase in hyperemia
same,Squinting,"Balb/C mice; all concentrations tested, topical to cornea",no statistically significant changes in squinting
same,Hyperemia at last dose / final evaluation,"Balb/C mice; concentrations that showed an initial increase or all tested, last dose / final evaluation (Day 3)",returned to baseline levels by the last dose on Day 3
same,Concentration at which not irritating / well tolerated,Balb/C mice; topical to cornea four times daily for 3 days,less than 0.5%
same,Stability by NMR (amount of sample remaining relative to original sample),[1]; Day 3,1 (1 = >95%)
same,Stability by NMR (amount of sample remaining relative to original sample),[1]; Day 14,1 (1 = >95%)
same,Stability by NMR (amount of sample remaining relative to original sample),[1]; Day 30,1 (1 = >95%)
same,Stability by NMR (amount of sample remaining relative to original sample),[1]; Day 60,1 (1 = >95%)
"CC/C=C\C/C=C\C/C=C\C/C=C\C/C=C\CCCC(=O)O.NCCCC[C@H](NC(=O)[C@@H](N)CCCCN)C(=O)O.O=C(O)c1cccnc1 [Compound 7, (L,L) Lysyl-lysine EPA niacin]",Stability by NMR (amount of sample remaining relative to original sample),[1]; Day 3,1 (1 = >95%)
same,Stability by NMR (amount of sample remaining relative to original sample),[1]; Day 14,1 (1 = >95%)
same,Stability by NMR (amount of sample remaining relative to original sample),[1]; Day 30,1 (1 = >95%)
same,Stability by NMR (amount of sample remaining relative to original sample),[1]; Day 60,1 (1 = >95%)
"CC/C=C\C/C=C\C/C=C\C/C=C\C/C=C\C/C=C\CCC(=O)O [DHA-FFA, DHA]",Tmax (free DHA),[2],4 h
same,Plasma level of free DHA,[2]; [3],0 ng/mL
same,Plasma level of free DHA,[2]; [4],0 ng/mL
same,Plasma level of free DHA,[2]; [5],1800 ng/mL
same,Plasma level of free DHA,[2]; [6],1800 ng/mL
same,Plasma level of free DHA,[2]; [7],2200 ng/mL
same,Plasma level of free DHA,[2]; [8],3400 ng/mL
same,Plasma level of free DHA,[2]; [9],1700 ng/mL
same,Plasma level of free DHA,[2]; [10],2100 ng/mL
same,Plasma level of free DHA,[2]; [11],1200 ng/mL
same,AUC 0-1 hrs (free DHA),[2]; [12],1100 ng·h/mL
same,AUC 0-4 hrs (free DHA),[2]; [12],8700 ng·h/mL
same,AUC 0-18 hrs (free DHA),[2]; [12],36300 ng·h/mL
same,Cmax (free DHA),[2]; [12],3400 ng/mL
CC/C=C\C/C=C\C/C=C\C/C=C\C/C=C\CCCC(=O)OCC [EPA ethyl ester],Tmax (free EPA),[2],4 h
same,Plasma level of free EPA,[2]; [3],0 ng/mL
same,Plasma level of free EPA,[2]; [4],300 ng/mL
same,Plasma level of free EPA,[2]; [5],500 ng/mL
same,Plasma level of free EPA,[2]; [6],700 ng/mL
same,Plasma level of free EPA,[2]; [7],800 ng/mL
same,Plasma level of free EPA,[2]; [8],1100 ng/mL
same,Plasma level of free EPA,[2]; [9],500 ng/mL
same,Plasma level of free EPA,[2]; [10],0 ng/mL
same,Plasma level of free EPA,[2]; [11],0 ng/mL
same,AUC 0-18 hrs (free EPA),[2]; [12],7200 ng·h/mL
same,Cmax (free EPA),[2]; [12],1100 ng/mL
same,Stability by NMR (amount of sample remaining relative to original sample),[1]; Day 3,1 (1 = >95%)
same,Stability by NMR (amount of sample remaining relative to original sample),[1]; Day 14,1-2
same,Stability by NMR (amount of sample remaining relative to original sample),[1]; Day 30,4 (4 = <50%)
same,Stability by NMR (amount of sample remaining relative to original sample),[1]; Day 60,4 (4 = <50%)
"CC/C=C\C/C=C\C/C=C\C/C=C\C/C=C\CCCC(=O)O [EPA-FFA, eicosapentaenoic acid]",Tmax,"[2]; both sexes, Sprague-Dawley, plasma",0.5 h
same,concentration at 0 h,"[2]; both sexes, Sprague-Dawley, plasma, 0 h (pre-dose), molar dose equivalent, baseline adjusted, read-out: Plasma level of free EPA",0 ng/mL
same,concentration at 0.25 h,"[2]; both sexes, Sprague-Dawley, plasma, 0.25 h (15 min), molar dose equivalent, baseline adjusted, read-out: Plasma level of free EPA",0 ng/mL
same,concentration at 0.5 h,"[2]; both sexes, Sprague-Dawley, plasma, 0.5 h (30 min), molar dose equivalent, baseline adjusted, read-out: Plasma level of free EPA",1300 ng/mL
same,concentration at 1 h,"[2]; both sexes, Sprague-Dawley, plasma, 1 h (60 min), molar dose equivalent, baseline adjusted, read-out: Plasma level of free EPA",500 ng/mL
same,concentration at 2 h,"[2]; both sexes, Sprague-Dawley, plasma, 2 h (120 min), molar dose equivalent, baseline adjusted, read-out: Plasma level of free EPA",800 ng/mL
same,concentration at 4 h,"[2]; both sexes, Sprague-Dawley, plasma, 4 h (240 min), molar dose equivalent, baseline adjusted, read-out: Plasma level of free EPA",1100 ng/mL
same,concentration at 8 h,"[2]; both sexes, Sprague-Dawley, plasma, 8 h, molar dose equivalent, baseline adjusted, read-out: Plasma level of free EPA",900 ng/mL
same,concentration at 12 h,"[2]; both sexes, Sprague-Dawley, plasma, 12 h, molar dose equivalent, baseline adjusted, read-out: Plasma level of free EPA",300 ng/mL
same,concentration at 18 h,"[2]; both sexes, Sprague-Dawley, plasma, 18 h, molar dose equivalent, baseline adjusted, read-out: Plasma level of free EPA",0 ng/mL
same,AUC 0-1 hrs (free EPA),[2]; [12],600 ng·h/mL
same,AUC 0-4 hrs (free EPA),[2]; [12],3100 ng·h/mL
same,AUC 0-18 hrs (free EPA),[2]; [12],10500 ng·h/mL
same,Cmax (free EPA),[2]; [12],1300 ng/mL
